Drawing on patent US20120015907A1, “Furopyridine compounds and uses thereof” (NOVARTIS AG, priority 2010, published 2012), this text covers IC50 for 25 compounds.

The target in one test is T1, HCV polymerase (Hepatitis C virus genotype 1b, UniProt Q9WMX2).
T1 construct: (His)6 (C)
The experiment in a line: biochemical. Conditions: polymerase assay of Biological Example 1; read-out: NS5B polymerase IC50.

In test [1] the test system is HCV replicon I389luc-ubi-neo/NS3-3'/ET in ET (Huh-lucubineo-ET) cells. The experiment in a line: Replicon assay (Biological Example 2), luciferase read-out. The class given is cell-based. Conditions: Hepatitis C virus, luciferase activity 48 hours after compound addition. Summed up: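 ET cells stably carry the replicon with adaptive mutations E1202G, […] and K1846T. Compound is added 24 h after plating at 0.1 nM–50 μM final (10-point, 3-fold dilutions) with 0.5% DMSO, and luciferase is read 48 h later. EC50 comes from a Hill-equation fit of % inhibition versus no-compound control.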

SMILES strings stand for the structures.

As a reminder, the IC50 is the point on the concentration scale where inhibition reaches its midpoint. For `CNC(=O)c1c(-c2ccc(Cl)cc2)oc2nc(N(CCCS(C)(=O)=O)S(C)(=O)=O)c(C3CC3)cc12` [Example 25.5, 2-(4-chlorophenyl)-5-cyclopropyl-N-methyl-6-(N-(3-(methylsulfonyl)propyl)methylsuIfonamido)furo[2,3-b]pyridine-3-carboxamide], the IC50 on HCV polymerase was 1 nM; in test [1], ≤ 100 nM.
Consider `CNC(=O)c1c(-c2ccc(C)cc2)oc2nc(N(CCCCS(C)(=O)=O)S(C)(=O)=O)c(C3CC3)cc12` [Example 25.6, 5-cyclopropyl-N-methyl-6-(N-(4-(methylsulfonyl)butyl)methylsulfonamido)-2-p-tolylfuro[2,3-b]pyridine-3-carboxamide], for which the IC50 is 2 nM at HCV polymerase and ≤ 100 nM in test [1].
With `CNC(=O)c1c(-c2ccc(F)cc2)oc2nc(N(CCCCS(C)(=O)=O)S(C)(=O)=O)c(C3CC3)cc12` [Example 25.7, 5-cyclopropyl-2-(4-fluorophenyl)-N-methyl-6-(N-(4-(methylsulfonyl)butyl)methylsulfonamido)furo[2,3-b]pyridine-3-carboxamide], the results for the IC50 (at HCV polymerase; in test [1]) were 1 nM and ≤ 100 nM, respectively.
As for `CNC(=O)c1c(-c2ccc(Cl)cc2)oc2nc(N(CCCCS(C)(=O)=O)S(C)(=O)=O)c(C3CC3)cc12` [Example 25.8], the results for the IC50 (at HCV polymerase; in test [1]) were 1 nM and ≤ 100 nM, respectively.
As for `CNC(=O)c1c(-c2ccc(C3CC3)cc2)oc2nc(N(CCCCS(C)(=O)=O)S(C)(=O)=O)c(C3CC3)cc12` [Example 25.9, 5-cyclopropyl-2-(4-cyclopropylphenyl)-N-methyl-6-(N-(4-(methylsulfonyl)butyl)methylsulfonamido)furo[2,3-b]pyridine-3-carboxamide], the IC50 is 3 nM at HCV polymerase and ≤ 100 nM in test [1].
In the case of `CNC(=O)c1c(-c2ccc(F)cc2)oc2nc(N(CCCC(C)(C)C(=O)OCC(C)C)S(C)(=O)=O)c(C3CC3)cc12` [Example 26, isobutyl 5-(N-(5-cyclopropyl-2-(4-fluorophenyl)-3-(methylcarbamoyl)furo[2,3-b]pyridin-6-yl)methylsulfonamido)-2,2-dimethylpentanoate], the IC50 at HCV polymerase is 6 nM; in test [1], ≤ 100 nM.
In the case of `CNC(=O)c1c(-c2ccc(C)cc2)oc2nc(N(CCC3CCS(=O)(=O)C3)S(C)(=O)=O)c(C3CC3)cc12` (centres unmarked) [Example 26.1, 5-Cyclopropyl-6-{[2-(1,1-dioxo-tetrahydro-thiophen-3-yl)-ethyl]-methanesulfonyl-amino}-2-p-tolyl-furo[2,3-b]pyridine-3-carboxylic acid methylamide], the IC50 was 1 nM on HCV polymerase and ≤ 100 nM in test [1].
Take `CNC(=O)c1c(-c2ccc(F)cc2)oc2nc(N(CCCCCS(C)(=O)=O)S(C)(=O)=O)c(C3CC3)cc12` [Example 26.2, 5-cyclopropyl-2-(4-fluorophenyl)-N-methyl-6-(N-(5-(methylsulfonyl)pentyl)methylsulfonamido) furo[2,3-b]pyridine-3-carboxamide]: the IC50 at HCV polymerase was 4 nM; in test [1] it was ≤ 100 nM.
As for `CCOC(=O)CCCCN(c1nc2oc(-c3ccc(Cl)cc3)c(C(=O)NC)c2cc1C1CC1)S(C)(=O)=O` [Example 26.3, ethyl 5-(N-(2-(4-chlorophenyl)-5-cyclopropyl-3-(methylcarbamoyl)furo[2,3-b]pyridin-6-yl)methylsulfonamido) pentanoate], the results for the IC50 (on HCV polymerase; in test [1]) were 3 nM and ≤ 100 nM, respectively.
For `CNC(=O)c1c(-c2ccc(F)cc2)oc2nc(N(CCCC(C)O)S(C)(=O)=O)c(C3CC3)cc12` (centres unmarked) [Example 26.4, 5-cyclopropyl-2-(4-fluorophenyl)-6-(N-(4-hydroxypentyl)methylsulfonamido)-N-methylfuro[2,3-b]pyridine-3-carboxamide] the same measures were 5 nM and ≤ 100 nM.
In the case of `CNC(=O)c1c(-c2ccc(F)cc2)oc2nc(N(CCC(C)O)S(C)(=O)=O)c(C3CC3)cc12` (centres unmarked) [Example 26.5, 5-cyclopropyl-2-(4-fluorophenyl)-6-(N-(3-hydroxybutyl)methylsulfonamido)-N-methylfuro[2,3-b]pyridine-3-carboxamide], the IC50 at HCV polymerase is 10 nM; in test [1] it was ≤ 100 nM.
As to `CNC(=O)c1c(-c2ccc(F)cc2)oc2nc(N(CCC(C)S(C)(=O)=O)S(C)(=O)=O)c(C3CC3)cc12` (centres unmarked) [Example 26.6, 5-cyclopropyl-2-(4-fluorophenyl)-N-methyl-6-(N-(3-(methylsulfonyl)butyl)methylsulfonamido)furo[2,3-b]pyridine-3-carboxamide], the figures for the IC50 (at HCV polymerase; in test [1]) were 4 nM and ≤ 100 nM, respectively.
For the compound `CNC(=O)c1c(-c2ccc(C)cc2)oc2nc(N(CCC(C)O)S(C)(=O)=O)c(C3CC3)cc12` (centres unmarked) [Example 26.7, 5-cyclopropyl-6-(N-(3-hydroxybutyl)methylsulfonamido)-N-methyl-2-p-tolylfuro[2,3-b]pyridine-3-carboxamide], the IC50 was 2 nM at HCV polymerase and ≤ 100 nM in test [1].
For `CNC(=O)c1c(-c2ccc(F)cc2)oc2nc(N(CCCCC(=O)OC)S(C)(=O)=O)c(C3CC3)cc12` [Example 26.8, methyl 5-(N-(5-cyclopropyl-2-(4-fluorophenyl)-3-(methylcarbamoyl)furo[2,3-b]pyridin-6-yl)methylsulfonamido) pentanoate] the same measures were 5 nM and ≤ 100 nM.
As to `CNC(=O)c1c(-c2ccc(Oc3ccccc3)cc2)oc2nc(N(CCCCC(=O)O)S(C)(=O)=O)c(C3CC3)cc12` [Example 27, 5-(N-(5-cyclopropyl-3-(methylcarbamoyl)-2-(4-phenoxyphenyl)furo[2,3-b]pyridin-6-yl)methylsulfonamido) pentanoic acid], the IC50 on HCV polymerase is 1 nM; in test [1], ≤ 100 nM.
As for `CNC(=O)c1c(-c2ccc(Oc3ccc(F)cc3)cc2)oc2nc(N(CCCCC(=O)O)S(C)(=O)=O)c(C3CC3)cc12` [Example 27.2, 5-(N-(5-cyclopropyl-2-(4-(4-fluorophenoxy)phenyl)-3-(methylcarbamoyl)furo[2,3-b]pyridin-6-yl)methylsulfonamido) pentanoic acid], the IC50 on HCV polymerase was 1 nM; in test [1] it was ≤ 100 nM.
`CNC(=O)c1c(-c2ccc(Oc3ccccc3)cc2)oc2nc(N(CCCC(C)(C)C(=O)O)S(C)(=O)=O)c(C3CC3)cc12` [Example 27.4, 5-(N-(5-cyclopropyl-3-(methylcarbamoyl)-2-(4-phenoxyphenyl)furo[2,3-b]pyridin-6-yl)methylsulfonamido)-2,2-dimethylpentanoic acid]: the IC50 at HCV polymerase was 1 nM; in test [1] it was ≤ 100 nM.
Regarding `CNC(=O)c1c(-c2ccc(Cl)cc2)oc2nc(N(CCCCC(=O)O)S(C)(=O)=O)c(C3CC3)cc12` [Example 27.5, 5-(N-(2-(4-chlorophenyl)-5-cyclopropyl-3-(methylcarbamoyl)furo[2,3-b]pyridin-6-yl)methylsulfonamido) pentanoic acid], the results for the IC50 (on HCV polymerase; in test [1]) were 1 nM and ≤ 100 nM, respectively.
`CNC(=O)c1c(-c2ccc(Cc3ccccc3)cc2)oc2nc(N(CCCCC(=O)O)S(C)(=O)=O)c(C3CC3)cc12` [Example 27.6, 5-(N-(2-(4-benzylphenyl)-5-cyclopropyl-3-(methylcarbamoyl)furo[2,3-b]pyridin-6-yl)methylsulfonamido) pentanoic acid]: the IC50 on HCV polymerase was 1 nM; in test [1], ≤ 100 nM.
Take `CNC(=O)c1c(-c2ccc(C3CC3)cc2)oc2nc(N(CCCCC(=O)O)S(C)(=O)=O)c(C3CC3)cc12` [Example 27.7, 5-(N-(5-cyclopropyl-2-(4-cyclopropylphenyl)-3-(methylcarbamoyl)furo[2,3-b]pyridin-6-yl)methylsulfonamido) pentanoic acid]: the IC50 was 1 nM on HCV polymerase and ≤ 100 nM in test [1].
`CCc1ccc(-c2oc3nc(N(CCCCC(=O)O)S(C)(=O)=O)c(C4CC4)cc3c2C(=O)NC)cc1` [Example 27.8, 5-(N-(5-cyclopropyl-2-(4-ethylphenyl)-3-(methylcarbamoyl)furo[2,3-b]pyridin-6-yl)methylsulfonamido) pentanoic acid]: the IC50 is 1 nM on HCV polymerase and ≤ 100 nM in test [1].
With `CNC(=O)c1c(-c2ccc(C)cc2)oc2nc(N(CCCCCC(=O)O)S(C)(=O)=O)c(C3CC3)cc12` [Example 27.9, 6-(N-(5-cyclopropyl-3-(methylcarbamoyl)-2-p-tolylfuro[2,3-b]pyridin-6-yl)methylsulfonamido) hexanoic acid], the values for the IC50 (on HCV polymerase; in test [1]) were 2 nM and ≤ 100 nM, respectively.
For `CNC(=O)c1c(-c2ccc(C)cc2)oc2nc(N(CCCC3(C(=O)O)CCCC3)S(C)(=O)=O)c(C3CC3)cc12` [Example 28, 1-(3-(N-(5-cyclopropyl-3-(methylcarbamoyl)-2-p-tolylfuro[2,3-b]pyridin-6-yl)methylsulfonamido)propyl) cyclopentanecarboxylic acid] the same measures were 1 nM and ≤ 100 nM.
`CNC(=O)c1c(-c2ccc(C)cc2)oc2nc(N(CC[C@@H]3C[C@H]3C(=O)O)S(C)(=O)=O)c(C3CC3)cc12` [Example 28.1, (1R,2S)-2-(2-(N-(5-cyclopropyl-3-(methylcarbamoyl)-2-p-tolylfuro[2,3-b]pyridin-6-yl)methylsulfonamido)ethyl) cyclopropanecarboxylic acid]: the IC50 on HCV polymerase was 2 nM; in test [1], ≤ 100 nM.
Take `CNC(=O)c1c(-c2ccc(C)cc2)oc2nc(N(CC[C@H]3C[C@@H]3C(=O)O)S(C)(=O)=O)c(C3CC3)cc12` [Example 28.2, (1S,2R)-2-(2-(N-(5-cyclopropyl-3-(methylcarbamoyl)-2-p-tolylfuro[2,3-b]pyridin-6-yl)methylsulfonamido)ethyl) cyclopropanecarboxylic acid]: the IC50 was 2 nM on HCV polymerase and ≤ 100 nM in test [1].
